For 32 compounds, IC50 and Activity results are on record in ChEMBL document CHEMBL4814007, “Structure-based discovery of SIAIS001 as an oral bioavailability ALK degrader constructed from Alectinib” (Eur J Med Chem, 2021).

The structures appear in SMILES notation. Activity calls are given as the source filed them. No cut-off for these calls is given here.

Assay [1] concerns SR. Description: Antiproliferative activity against ALK positive human SR cells. Type of assay: functional, cell-based.
The target in assay [2] is von Hippel-Lindau disease tumor suppressor/ALK tyrosine kinase receptor (Homo sapiens) (UniProt Q9UM73+P40337). Description: Protac activity at VHL1/ALK in human SR cells assessed as increase in ALK degradation at 500 nM by Western blot analysis. Type of assay: cell-based. On the technique in general: A western blot detects proteins with antibodies after separation by electrophoresis.
von Hippel-Lindau disease tumor suppressor/ALK tyrosine kinase receptor (Homo sapiens), sequence (P40337 whole entry partner): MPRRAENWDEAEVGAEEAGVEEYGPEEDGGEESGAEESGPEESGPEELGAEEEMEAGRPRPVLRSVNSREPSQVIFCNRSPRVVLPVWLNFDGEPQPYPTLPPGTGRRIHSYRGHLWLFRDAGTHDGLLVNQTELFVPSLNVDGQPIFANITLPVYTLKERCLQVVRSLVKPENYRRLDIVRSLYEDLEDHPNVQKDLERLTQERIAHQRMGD
von Hippel-Lindau disease tumor suppressor/ALK tyrosine kinase receptor (Homo sapiens), sequence (Q9UM73 19-1620 limits assumed): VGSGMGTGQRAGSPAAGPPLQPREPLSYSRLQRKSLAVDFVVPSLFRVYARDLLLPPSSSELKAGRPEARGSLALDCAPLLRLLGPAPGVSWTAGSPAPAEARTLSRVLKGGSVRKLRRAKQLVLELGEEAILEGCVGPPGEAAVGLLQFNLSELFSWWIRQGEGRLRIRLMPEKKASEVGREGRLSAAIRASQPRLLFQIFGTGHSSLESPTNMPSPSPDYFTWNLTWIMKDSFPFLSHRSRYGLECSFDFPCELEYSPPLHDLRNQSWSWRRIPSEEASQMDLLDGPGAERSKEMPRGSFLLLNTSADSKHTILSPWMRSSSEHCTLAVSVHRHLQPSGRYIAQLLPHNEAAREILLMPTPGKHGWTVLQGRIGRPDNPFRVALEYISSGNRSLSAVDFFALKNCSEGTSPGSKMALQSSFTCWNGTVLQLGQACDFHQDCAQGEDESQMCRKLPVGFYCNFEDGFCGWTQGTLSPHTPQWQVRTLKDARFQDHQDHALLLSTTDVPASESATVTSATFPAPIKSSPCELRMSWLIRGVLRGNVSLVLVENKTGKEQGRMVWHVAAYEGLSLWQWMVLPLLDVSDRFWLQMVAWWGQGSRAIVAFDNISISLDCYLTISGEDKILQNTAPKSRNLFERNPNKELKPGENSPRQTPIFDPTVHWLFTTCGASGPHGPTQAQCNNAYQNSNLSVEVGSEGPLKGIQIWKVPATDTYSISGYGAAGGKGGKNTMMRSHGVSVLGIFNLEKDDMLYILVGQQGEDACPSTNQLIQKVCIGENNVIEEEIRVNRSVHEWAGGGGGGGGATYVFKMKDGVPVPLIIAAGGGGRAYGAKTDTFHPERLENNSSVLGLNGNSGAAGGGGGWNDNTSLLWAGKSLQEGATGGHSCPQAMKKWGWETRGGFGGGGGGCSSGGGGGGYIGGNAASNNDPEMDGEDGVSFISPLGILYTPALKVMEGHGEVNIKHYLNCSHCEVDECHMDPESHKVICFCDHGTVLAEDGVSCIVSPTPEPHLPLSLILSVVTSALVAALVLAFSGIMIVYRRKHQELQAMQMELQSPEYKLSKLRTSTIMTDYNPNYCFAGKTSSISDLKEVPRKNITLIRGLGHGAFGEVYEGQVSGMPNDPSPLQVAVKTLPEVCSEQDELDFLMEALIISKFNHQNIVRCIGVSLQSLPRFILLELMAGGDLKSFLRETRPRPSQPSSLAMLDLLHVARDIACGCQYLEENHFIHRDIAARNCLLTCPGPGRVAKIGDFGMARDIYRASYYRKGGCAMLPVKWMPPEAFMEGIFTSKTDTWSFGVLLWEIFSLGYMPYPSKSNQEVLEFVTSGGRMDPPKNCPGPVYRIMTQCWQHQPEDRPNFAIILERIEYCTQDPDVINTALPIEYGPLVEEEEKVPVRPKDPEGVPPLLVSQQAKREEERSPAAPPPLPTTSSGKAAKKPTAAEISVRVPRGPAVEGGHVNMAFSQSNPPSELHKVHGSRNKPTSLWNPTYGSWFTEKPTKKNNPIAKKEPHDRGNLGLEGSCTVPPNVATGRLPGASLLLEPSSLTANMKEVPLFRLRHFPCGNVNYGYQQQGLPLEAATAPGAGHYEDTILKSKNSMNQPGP

In assay [3] the target is T1, Protein cereblon/ALK tyrosine kinase receptor (Homo sapiens, UniProt Q9UM73+Q96SW2). Description: Protac activity at CRBN/ALK in human SR cells assessed as protein abundance at 50 nM by Western blot analysis (reference value: 1). The format is cell-based.
T1 sequence (Q96SW2 whole entry partner): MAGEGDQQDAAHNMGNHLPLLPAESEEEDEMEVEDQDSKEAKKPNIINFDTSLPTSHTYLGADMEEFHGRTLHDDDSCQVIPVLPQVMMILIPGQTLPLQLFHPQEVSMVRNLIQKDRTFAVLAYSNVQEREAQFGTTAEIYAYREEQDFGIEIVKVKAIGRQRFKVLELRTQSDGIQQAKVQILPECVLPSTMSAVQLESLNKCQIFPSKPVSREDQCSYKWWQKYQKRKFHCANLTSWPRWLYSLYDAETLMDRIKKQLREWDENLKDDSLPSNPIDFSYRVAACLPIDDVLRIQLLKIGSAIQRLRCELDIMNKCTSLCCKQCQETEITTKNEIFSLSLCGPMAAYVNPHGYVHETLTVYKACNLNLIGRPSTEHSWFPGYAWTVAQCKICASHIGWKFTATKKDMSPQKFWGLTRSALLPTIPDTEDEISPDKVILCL
T1 sequence (Q9UM73 19-1620 limits assumed): as the sequence (Q9UM73 19-1620 limits assumed) above
Assay [4] deals with T1, Protein cereblon/ALK tyrosine kinase receptor. The assay is described as follows: Protac activity at CRBN/ALK in human SR cells assessed as protein abundance at 5 nM by Western blot analysis (reference value: 1). Type of assay: cell-based.
For assay [5] the target is unchanged. The assay is described as follows: Protac activity at CRBN/ALK in human SR cells assessed as protein abundance at 0.05 nM by Western blot analysis (reference value: 1). The format is cell-based.
Assay [6] has the same target. Description: Protac activity at CRBN/ALK in human SR cells assessed as increase in ALK degradation at 500 nM by Western blot analysis. Type of assay: cell-based.
Assay [7] shares this target. Description: Protac activity at CRBN/ALK in human SR cells assessed as protein abundance at 0.5 nM by Western blot analysis (reference value: 1). The format is cell-based.
For assay [8] the target is unchanged. The assay is described as follows: Protac activity at CRBN/ALK in human SR cells assessed as protein abundance at 500 nM by Western blot analysis (reference value: 1). Type of assay: cell-based.

Regarding `CCc1cc2c(cc1N1CCC(N3CCN(C(=O)CNc4cccc5c4C(=O)N(C4CCC(=O)NC4=O)C5=O)CC3)CC1)C(C)(C)c1[nH]c3cc(C#N)ccc3c1C2=O` (stereo unspecified), the IC50 (as a rule, the point on the concentration scale where inhibition reaches its midpoint) in assay [1] is 4.1 nM. Besides, the outcome in assay [2] was Active.

`CCc1cc2c(cc1N1CCC(NC(=O)CCCNc3cccc4c3C(=O)N(C3CCC(=O)NC3=O)C4=O)CC1)C(C)(C)c1[nH]c3cc(C#N)ccc3c1C2=O` (stereo unspecified) came in with an IC50 in assay [1] of 8.2 nM. This lies in the single-digit nanomolar range.

Regarding `CCc1cc2c(cc1N1CCC(N3CCN(C(=O)CCOCCOCCOCCOCCNc4cccc5c4C(=O)N(C4CCC(=O)NC4=O)C5=O)CC3)CC1)C(C)(C)c1[nH]c3cc(C#N)ccc3c1C2=O` (stereo unspecified), the Activity in assay [3] is 0.7; in assay [4] it was 0.96; in assay [5], 1.01; in assay [7], 1.03; in assay [8], 0.53. In addition, the IC50 in assay [1] came out at 3.1 nM. For the same compound, in assay [6], the outcome was Active.

In assay [1], `CCc1cc2c(cc1N1CCN(C(=O)CCCNc3cccc4c3C(=O)N(C3CCC(=O)NC3=O)C4=O)CC1)C(C)(C)c1[nH]c3cc(C#N)ccc3c1C2=O` (stereo unspecified) yielded an IC50 of 9.2 nM.

As to `CCc1cc2c(cc1N1CCC(N)CC1)C(C)(C)c1[nH]c3cc(C#N)ccc3c1C2=O`, the IC50 in assay [1] stood at 2.8 nM.

Take `CCc1cc2c(cc1N1CCC(NC(=O)CCOCCOCCNc3cccc4c3C(=O)N(C3CCC(=O)NC3=O)C4=O)CC1)C(C)(C)c1[nH]c3cc(C#N)ccc3c1C2=O` (stereo unspecified): in assay [1], the midpoint of inhibition, the IC50, lay at 12 nM.

In the case of `CCc1cc2c(cc1N1CCN(C(=O)CNc3cccc4c3C(=O)N(C3CCC(=O)NC3=O)C4=O)CC1)C(C)(C)c1[nH]c3cc(C#N)ccc3c1C2=O` (stereo unspecified), the Activity in assay [3] turned out to be 0.66; in assay [4], 0.89; in assay [5], 1.17; in assay [7], 1.12; in assay [8] it was 0.43. For the same compound, in assay [1], inhibition was half-maximal at 3.2 nM (IC50). In addition, in assay [6], the outcome was Active.

In assay [1], `CCc1cc2c(cc1N1CCC(NC(=O)CCOCCOCCOCCOCCNc3cccc4c3C(=O)N(C3CCC(=O)NC3=O)C4=O)CC1)C(C)(C)c1[nH]c3cc(C#N)ccc3c1C2=O` (stereo unspecified) had an IC50 of 5.9 nM. That is a single-digit nanomolar value.

`CCc1cc2c(cc1N1CCNCC1)C(C)(C)c1[nH]c3cc(C#N)ccc3c1C2=O` registered a 50% inhibitory concentration (IC50) in assay [1] of 0.8 nM.

Take `CCc1cc2c(cc1N1CCN(C(=O)CCOCCOCCOCCOCCNc3cccc4c3C(=O)N(C3CCC(=O)NC3=O)C4=O)CC1)C(C)(C)c1[nH]c3cc(C#N)ccc3c1C2=O` (stereo unspecified): half-maximal inhibition in assay [1] (IC50) required 11.9 nM.

In assay [1], `CCc1cc2c(cc1N1CCC(N3CCN(CCCCCCCC#Cc4cccc5c4CN(C4CCC(=O)NC4=O)C5=O)CC3)CC1)C(C)(C)c1[nH]c3cc(C#N)ccc3c1C2=O` (stereo unspecified) had an IC50 of 3.3 nM. Compared with the last compound, the IC50 is about 3.6-fold lower.

Consider `CCc1cc2c(cc1N1CCN(C(=O)CCOCCOCCNc3cccc4c3C(=O)N(C3CCC(=O)NC3=O)C4=O)CC1)C(C)(C)c1[nH]c3cc(C#N)ccc3c1C2=O` (stereo unspecified), for which half-maximal inhibition in assay [1] (IC50) required 30.8 nM.

`Cc1cc(Nc2ncc(Cl)c(Nc3ccccc3S(=O)(=O)C(C)C)n2)c(OC(C)C)cc1C1CCN(C(=O)NCCOCCOCCOCCOCCOCCNC(=O)CNc2cccc3c2C(=O)N(C2CCC(=O)NC2=O)C3=O)CC1` (stereo unspecified) came in with a 50% inhibitory concentration (IC50) in assay [1] of 13.8 nM.

Turning to `CCc1cc2c(cc1N1CCC(NC(=O)CCCCCNc3cccc4c3C(=O)N(C3CCC(=O)NC3=O)C4=O)CC1)C(C)(C)c1[nH]c3cc(C#N)ccc3c1C2=O` (stereo unspecified), in assay [1], the IC50 was 3.8 nM. Against the preceding compound, the IC50 is about 3.6-fold lower.

In assay [1], `CCc1cc2c(cc1N1CCC(N3CCN(C(=O)CCCCCNc4cccc5c4C(=O)N(C4CCC(=O)NC4=O)C5=O)CC3)CC1)C(C)(C)c1[nH]c3cc(C#N)ccc3c1C2=O` (stereo unspecified) showed an IC50 of 3.4 nM.

In turn, `CCc1cc2c(cc1N1CCC(N3CCN(C(=O)CCCNc4cccc5c4CN(C4CCC(=O)NC4=O)C5=O)CC3)CC1)C(C)(C)c1[nH]c3cc(C#N)ccc3c1C2=O` (stereo unspecified) showed an IC50 in assay [1] of 3.3 nM.

Regarding `CCc1cc2c(cc1N1CCN(C(=O)CCCCCNc3cccc4c3C(=O)N(C3CCC(=O)NC3=O)C4=O)CC1)C(C)(C)c1[nH]c3cc(C#N)ccc3c1C2=O` (stereo unspecified), in assay [1], half-maximal inhibition (IC50) was put at 15.1 nM.

The compound `CCc1cc2c(cc1N1CCC(N3CCN(C(=O)CCCCNc4cccc5c4CN(C4CCC(=O)NC4=O)C5=O)CC3)CC1)C(C)(C)c1[nH]c3cc(C#N)ccc3c1C2=O` (stereo unspecified) came in with an IC50 in assay [1] of 4.7 nM.

`COc1cc(N2CCC(N3CCN(C)CC3)CC2)ccc1Nc1ncc(Cl)c(Nc2ccccc2P(C)(C)=O)n1` [BRIGATINIB]: the half-inhibitory concentration (IC50) in assay [1] worked out at 1.9 nM.

`COc1cc(N2CCC(NC(=O)CCCCCCCCCC(=O)N[C@@H](C(=O)N3C[C@H](O)C[C@H]3C(=O)NCc3ccc(-c4scnc4C)cc3)C(C)(C)C)CC2)ccc1Nc1ncc(Cl)c(Nc2ccccc2P(C)(C)=O)n1` showed an IC50 in assay [1] of 1.1 nM.

Compound `Cc1cc(Nc2ncc(Cl)c(Nc3ccccc3S(=O)(=O)C(C)C)n2)c(OC(C)C)cc1C1CCN(C(=O)NCCNC(=O)CNc2cccc3c2C(=O)N(C2CCC(=O)NC2=O)C3=O)CC1` (stereo unspecified) gave an IC50 in assay [1] of 8.5 nM.

As to `CCc1cc2c(cc1N1CCC(N3CCN(CCCCC#Cc4cccc5c4CN(C4CCC(=O)NC4=O)C5=O)CC3)CC1)C(C)(C)c1[nH]c3cc(C#N)ccc3c1C2=O` (stereo unspecified), 1.2 nM corresponded to half-maximal inhibition in assay [1] (IC50).

With `CCc1cc2c(cc1N1CCC(N3CCN(CCCCCC#Cc4cccc5c4CN(C4CCC(=O)NC4=O)C5=O)CC3)CC1)C(C)(C)c1[nH]c3cc(C#N)ccc3c1C2=O` (stereo unspecified), the Activity in assay [3] was 0.67; in assay [4] it was 0.76; in assay [5], 1.08; in assay [7] it was 1.09; in assay [8] it was 0.69. Also, it took 1.8 nM to reach half-maximal inhibition in assay [1] (IC50).

`CCc1cc2c(cc1N1CCC(N3CCN(C(=O)CCOCCOCCNc4cccc5c4C(=O)N(C4CCC(=O)NC4=O)C5=O)CC3)CC1)C(C)(C)c1[nH]c3cc(C#N)ccc3c1C2=O` (stereo unspecified) yielded an IC50 in assay [1] of 2.5 nM.

In turn, `CCc1cc2c(cc1N1CCC(N3CCN(C(=O)CCCCCCNc4cccc5c4CN(C4CCC(=O)NC4=O)C5=O)CC3)CC1)C(C)(C)c1[nH]c3cc(C#N)ccc3c1C2=O` (stereo unspecified) returned an IC50 in assay [1] of 9.2 nM.

`CCc1cc2c(cc1N1CCC(N3CCN(CCCCCCC#Cc4cccc5c4CN(C4CCC(=O)NC4=O)C5=O)CC3)CC1)C(C)(C)c1[nH]c3cc(C#N)ccc3c1C2=O` (stereo unspecified) registered an IC50 in assay [1] of 1.6 nM.

The compound `Cc1cc(Nc2ncc(Cl)c(Nc3ccccc3S(=O)(=O)C(C)C)n2)c(OC(C)C)cc1C1CCN(CCOCCOCCNC(=O)CNc2cccc3c2C(=O)N(C2CCC(=O)NC2=O)C3=O)CC1` (stereo unspecified) registered an IC50 in assay [1] of 5.9 nM.

For the compound `CCc1cc2c(cc1N1CCC(N3CCN(C(=O)CCCCCNc4cccc5c4CN(C4CCC(=O)NC4=O)C5=O)CC3)CC1)C(C)(C)c1[nH]c3cc(C#N)ccc3c1C2=O` (stereo unspecified), the IC50 in assay [1] turned out to be 4 nM.

Take `CCc1cc2c(cc1N1CCC(N3CCNCC3)CC1)C(C)(C)c1[nH]c3cc(C#N)ccc3c1C2=O`: half-maximal inhibition in assay [1] (IC50) was put at 4.9 nM.

As to `CCc1cc2c(cc1N1CCC(N3CCN(C(=O)CCCNc4cccc5c4C(=O)N(C4CCC(=O)NC4=O)C5=O)CC3)CC1)C(C)(C)c1[nH]c3cc(C#N)ccc3c1C2=O` (stereo unspecified), the Activity was found to be 0.55 in assay [3]; 0.66 in assay [4]; 1.05 in assay [5]; 0.82 in assay [7]; 0.47 in assay [8]. Also, the IC50 in assay [1] turned out to be 12.9 nM. The outcome in assay [6] was Active.

The compound `CCc1cc2c(cc1N1CCC(NC(=O)CNc3cccc4c3C(=O)N(C3CCC(=O)NC3=O)C4=O)CC1)C(C)(C)c1[nH]c3cc(C#N)ccc3c1C2=O` (stereo unspecified) showed an IC50 in assay [1] of 13.5 nM.

In the case of `Cc1cc(Nc2ncc(Cl)c(Nc3ccccc3S(=O)(=O)C(C)C)n2)c(OC(C)C)cc1C1CCNCC1` [CERITINIB], half-maximal inhibition in assay [1] (IC50) was put at 2.2 nM.
